From patent US10357036B2, “Compounds for controlling arthropods” (priority 2015, dated 2019) come the findings set out here.

One assay deals with Rhipicephalus sanguineus. In words: Rhipicephalus sanguineus in vitro contact test with adult brown dog ticks. The class given is in vivo. The conditions noted are these: application rate 5 μg/cm^2 (=500 g/ha); after 48 h; dead or moribund ticks. As to the method: (§1) For the coating of the test tubes, 9 mg of active ingredient are first dissolved in 1 ml of acetone p.a. and then diluted to the desired concentration with acetone p.a. 250 μl of the solution are distributed homogeneously on the inner walls and the base of a 25 ml glass tube by turning and rocking on an orbital shaker (rocking rotation at 30 rpm for 2 h). With 900 ppm of active ingredient solution and internal surface area 44.7 cm^2, given homogeneous distribution, an area-based dose of 5 μg/cm^2 is achieved.
After the solvent has evaporated off, the tubes are populated with 5-10 adult dog ticks (Rhipicephalus sanguineus), sealed with a perforated plastic lid and incubated in a horizontal position in the dark at room temperature and ambient humidity. After 48 h, efficacy is determined. To this end, the ticks are knocked to the base of the tube and incubated on a hotplate at 45-50° C. for not more than 5 min. Ticks which remain motionless on the base or move in such an uncoordinated manner that they are unable to deliberately avoid the heat by climbing upwards are considered to be dead or moribund.
An efficacy of 100% means that all the ticks were dead or moribund. 0% efficacy means that none of the ticks were harmed.

The next assay deals with Boophilus microplus. In words: Boophilus microplus injection test. In kind it is in vivo. The conditions noted are these: 20 μg/animal; assessed after 7 days. As to the method:
(§2) • Solvent: dimethyl sulfoxide
1 μl of the active ingredient solution is injected into the abdomen of 5 engorged adult female cattle ticks (Boophilus microplus). The animals are transferred into dishes and kept in a climate-controlled room.

Assay [1] deals with Ctenocephalides felis. In words: Ctenocephalides felis oral test. In kind it is in vivo. Particulars: 100 ppm in citrated cattle blood; after 2 days. How it is done:
• Solvent: Dimethyl Sulfoxide
To produce a suitable active ingredient formulation, 10 mg of active ingredient are mixed with 0.5 ml of dimethyl sulfoxide. Dilution with citrated cattle blood gives the desired concentration.
About 20 unfed adult cat fleas (Ctenocephalides fells) are placed into a chamber which is closed at the top and bottom with gauze. A metal cylinder whose bottom end is closed with parafilm is placed onto the chamber. The cylinder contains the blood/active ingredient formulation, which can be imbibed by the fleas through the parafilm membrane.

In another assay the test system is Musca domestica. The assay is described as follows: Musca domestica test. In kind it is in vivo. The conditions noted are these: 100 ppm; adult houseflies; after 2 days. How it is done: as §2
To produce a suitable active ingredient formulation, 10 mg of active ingredient are mixed with 0.5 ml of dimethyl sulfoxide, and the concentrate is diluted with water to the desired concentration.
Vessels containing a sponge treated with sugar solution and the active ingredient formulation of the desired concentration are populated with 10 adult houseflies (Musca domestica).

A further assay deals with Spodoptera frugiperda. In words: Spodoptera frugiperda spray test. The class given is in vivo. Particulars: 100 g/ha; after 7 days.
The next assay concerns Tetranychus urticae. The assay is described as follows: Tetranychus urticae spray test, OP-resistant (bean leaf discs). Particulars: 100 g/ha; after 6 days. The class given is in vivo. How it is done:
After 6 days, the efficacy in % is determined.

The subject of the next assay is Phaedon cochleariae. The assay is described as follows: Phaedon cochleariae spray test. Particulars: 100 g/ha; after 7 days.
Assay [2] concerns Ctenocephalides felis. The assay is described as follows: Ctenocephalides felis in vitro contact test with adult cat fleas. The conditions noted are these: application rate 5 μg/cm^2 (=500 g/ha); after 48 h; dead or moribund fleas. The class given is in vivo. As to the method: as §1
After the solvent has evaporated off, the tubes are populated with 5-10 adult cat fleas (Ctenocephalides felis), sealed with a perforated plastic lid and incubated in a horizontal position at room temperature and ambient humidity. After 48 h, efficacy is determined. To this end, the tubes are stood upright and the fleas are knocked to the base of the tube. Fleas which remain motionless at the base or move in an uncoordinated manner are considered to be dead or moribund.
100% efficacy means that all the fleas were dead or moribund. 0% efficacy means that no fleas were harmed.

Values joined by “and” are separate entries in the source; they are usually repeats but may differ in a detail not shown here. Equal values may be shown once.

For the molecule `O=C(CC(F)(F)F)NCc1cc(-c2cnn(-c3c(Cl)cc(C(F)(C(F)(F)F)C(F)(F)F)cc3OC(F)(F)F)c2)ccc1F` [Ia-19], the efficacy in the assay with Rhipicephalus sanguineus is recorded as 100%; with Spodoptera frugiperda it was 100%; with Tetranychus urticae it was 90%; in the assay with Phaedon cochleariae, 100%. The “efficacy (laying of fertile eggs)” value in the assay on Boophilus microplus worked out at 100%. Also, the “efficacy (rate of extermination)” value in the assay with Ctenocephalides felis [1] and with Musca domestica was 100% throughout.

`N#Cc1cc(C(F)(C(F)(F)F)C(F)(F)F)cc(Cl)c1-n1cc(-c2ccc(F)c(CNC(=O)C3CC3)c2)cn1` [Ia-107]: the efficacy in the assay with Ctenocephalides felis [2], with Spodoptera frugiperda, with Tetranychus urticae and in the assay with Phaedon cochleariae was 100% throughout. Moreover, in the assay with Boophilus microplus, the “efficacy (laying of fertile eggs)” value was determined as 100%. In addition, the “efficacy (rate of extermination)” value in the assay with Ctenocephalides felis [1] and in the assay on Musca domestica was 100% throughout.

For “N-(2-chloro-5-{1-[2,6-dichloro-4-(1,1,1,2,3,3,3-heptafluoropropan-2-yl)phenyl]-1H-pyrazol-4-yl}benzyl)-N-methylpropanamide [Ia-22]”, the efficacy with Rhipicephalus sanguineus is reported as 80%; in the assay with Tetranychus urticae it was 90%; in the assay on Phaedon cochleariae, 100%. The “efficacy (laying of fertile eggs)” value in the assay with Boophilus microplus is reported as 100%. Besides, the “efficacy (rate of extermination)” value in the assay on Ctenocephalides felis [1] is on record as 100%.

As for `C=CCN(Cc1cc(-c2cnn(-c3c(Cl)cc(C(F)(C(F)(F)F)C(F)(F)F)cc3Cl)c2)ccc1Cl)C(C)=O` [Ia-113], the efficacy with Ctenocephalides felis [2] was 100%; in the assay on Spodoptera frugiperda it was 100%; with Tetranychus urticae, 90%; with Phaedon cochleariae, 100%. The “efficacy (laying of fertile eggs)” value with Boophilus microplus was found to be 100%. Also, the “efficacy (rate of extermination)” value in the assay with Ctenocephalides felis [1] and with Musca domestica was 100% throughout.

Regarding `CC(=O)NCc1cc(-c2cnn(-c3c(Cl)cc(C(F)(C(F)(F)F)C(F)(F)F)cc3OC(F)(F)F)c2)cnc1Cl` [Ia-131], the efficacy in the assay on Ctenocephalides felis [2], in the assay on Spodoptera frugiperda and with Phaedon cochleariae was 100% in each case. Besides, in the assay on Boophilus microplus, the “efficacy (laying of fertile eggs)” value is 100%. Further, the “efficacy (rate of extermination)” value with Ctenocephalides felis [1] and in the assay with Musca domestica was 100% throughout.

As for `CCC(=O)NCc1c(F)ccc(-c2cnn(-c3c(Cl)cc(C(F)(C(F)(F)F)C(F)(F)F)cc3C(F)(F)F)c2)c1F` [Ia-146], the efficacy in the assay on Rhipicephalus sanguineus, in the assay on Spodoptera frugiperda and in the assay with Phaedon cochleariae was 100% in each case. In addition, the “efficacy (laying of fertile eggs)” value in the assay with Boophilus microplus worked out at 100%. Further, the “efficacy (rate of extermination)” value with Ctenocephalides felis [1] and in the assay with Musca domestica was 100% each time.

As for `CCC(=O)NCc1cccc(-c2cnn(-c3c(Cl)cc(C(F)(C(F)(F)F)C(F)(F)F)cc3C(F)F)c2)c1F` [Ia-143], the efficacy in the assay with Rhipicephalus sanguineus is listed as 80%; in the assay with Spodoptera frugiperda, 100%; in the assay with Phaedon cochleariae it was 100%. For the same molecule, the “efficacy (laying of fertile eggs)” value in the assay with Boophilus microplus came to 100%. The “efficacy (rate of extermination)” value with Ctenocephalides felis [1] and in the assay with Musca domestica was 100% each time.

For `Cc1cc(C(F)(C(F)(F)F)C(F)(F)F)cc(C)c1-n1cc(-c2ccc(F)c(CNC(=O)C3CC3)c2)cn1` [Ia-04], the efficacy with Rhipicephalus sanguineus, in the assay with Spodoptera frugiperda, in the assay on Tetranychus urticae and with Phaedon cochleariae was 100% in each case. The “efficacy (laying of fertile eggs)” value with Boophilus microplus came out at 100%. Further, the “efficacy (rate of extermination)” value in the assay on Ctenocephalides felis [1] and in the assay with Musca domestica was 100% throughout.

`CC(=O)NCc1cc(-c2cnn(-c3c(Cl)cc(C(F)(C(F)(F)F)C(F)(F)F)cc3Cl)c2)cnc1Cl` [Ia-130]: the efficacy was found to be 100% in the assay on Ctenocephalides felis [2], 100% in the assay with Spodoptera frugiperda, 90% in the assay with Tetranychus urticae and 100% in the assay on Phaedon cochleariae. Besides, in the assay with Boophilus microplus, the “efficacy (laying of fertile eggs)” value came to 100%. Besides, the “efficacy (rate of extermination)” value with Ctenocephalides felis [1] and in the assay with Musca domestica was 100% each time.

Take `CC(=O)N(C)Cc1cc(-c2cnn(-c3c(Cl)cc(C(F)(C(F)(F)F)C(F)(F)F)cc3Cl)c2)cnc1Cl` [Ia-73]: the efficacy in the assay on Ctenocephalides felis [2] is 100%; with Spodoptera frugiperda it was 100%; in the assay with Tetranychus urticae, 100% and 90%; in the assay on Phaedon cochleariae it was 100%. In addition, in the assay on Boophilus microplus, the “efficacy (laying of fertile eggs)” value is listed as 100%. Further, the “efficacy (rate of extermination)” value with Ctenocephalides felis [1] and in the assay with Musca domestica was 100% each time.

As to `CCC(=O)NCc1cc(-c2cnn(-c3c(Cl)cc(C(F)(C(F)(F)F)C(F)(F)F)cc3C(F)(F)F)c2)ccc1Cl` [Ia-29], the efficacy in the assay on Rhipicephalus sanguineus, in the assay with Spodoptera frugiperda and in the assay on Phaedon cochleariae was 100% each time. Further, the “efficacy (laying of fertile eggs)” value in the assay with Boophilus microplus came to 100%. For the same molecule, the “efficacy (rate of extermination)” value with Ctenocephalides felis [1] and in the assay with Musca domestica was 100% in each case.

Consider `CSc1cc(C(F)(C(F)(F)F)C(F)(F)F)cc(Cl)c1-n1cc(-c2ccc(F)c(CNC(C)=O)c2)cn1` [Ia-07], for which the efficacy with Ctenocephalides felis [2] was determined as 100%; in the assay on Spodoptera frugiperda, 83%; in the assay on Tetranychus urticae it was 100%; with Phaedon cochleariae, 100%. For the same molecule, in the assay on Boophilus microplus, the “efficacy (laying of fertile eggs)” value is given as 100%. Also, the “efficacy (rate of extermination)” value with Ctenocephalides felis [1] and in the assay with Musca domestica was 100% throughout.

In the case of `CC(=O)NCc1cccc(-c2cnn(-c3c(C)cc(C(F)(C(F)(F)F)C(F)(F)F)cc3Cl)c2)c1` [Ia-68], the efficacy in the assay on Rhipicephalus sanguineus was determined as 80%; in the assay on Spodoptera frugiperda, 83%; in the assay with Tetranychus urticae, 100%; with Phaedon cochleariae, 100%. In addition, the “efficacy (laying of fertile eggs)” value in the assay on Boophilus microplus worked out at 100%. For the same molecule, the “efficacy (rate of extermination)” value in the assay on Ctenocephalides felis [1] and with Musca domestica was 100% each time.

`CCC(=O)NCc1c(F)ccc(-c2cnn(-c3c(Cl)cc(C(F)(C(F)(F)F)C(F)(F)F)cc3OC(F)F)c2)c1F` [Ia-157]: the efficacy in the assay with Rhipicephalus sanguineus amounted to 100%; with Spodoptera frugiperda, 100%; in the assay with Tetranychus urticae, 90%; in the assay with Phaedon cochleariae, 100%. In addition, the “efficacy (laying of fertile eggs)” value in the assay with Boophilus microplus is given as 100%. The “efficacy (rate of extermination)” value with Ctenocephalides felis [1] and in the assay with Musca domestica was 100% throughout.

Turning to `O=C(NCc1cc(-c2cnn(-c3c(Cl)cc(C(F)(C(F)(F)F)C(F)(F)F)cc3OC(F)(F)F)c2)ccc1F)C1CC1` [Ia-40], the results for the efficacy in the assay with Rhipicephalus sanguineus, in the assay with Spodoptera frugiperda and in the assay on Phaedon cochleariae were 80%, 100% and 100%, respectively. Also, the “efficacy (laying of fertile eggs)” value with Boophilus microplus was determined as 100%. Moreover, the “efficacy (rate of extermination)” value in the assay on Ctenocephalides felis [1] and in the assay with Musca domestica was 100% in each case.

Turning to `CCOCN(Cc1cc(-c2cnn(-c3c(Cl)cc(C(F)(C(F)(F)F)C(F)(F)F)cc3Cl)c2)ccc1Cl)C(C)=O` [Ia-117], the efficacy in the assay on Ctenocephalides felis [2], in the assay with Spodoptera frugiperda and in the assay with Phaedon cochleariae was 100% throughout. The “efficacy (laying of fertile eggs)” value in the assay on Boophilus microplus is reported as 100%. Also, the “efficacy (rate of extermination)” value in the assay with Ctenocephalides felis [1] and in the assay with Musca domestica was 100% each time.

Regarding `CCC(=O)NCc1cc(-c2cnn(-c3c(Cl)cc(C(F)(C(F)(F)F)C(F)(F)F)cc3OC(F)(F)F)c2)ccc1F` [Ia-26], the efficacy with Rhipicephalus sanguineus is reported as 80%; in the assay on Spodoptera frugiperda, 100%; with Tetranychus urticae it was 90%; in the assay with Phaedon cochleariae, 100%. In the assay with Boophilus microplus, the “efficacy (laying of fertile eggs)” value was 100%. Besides, the “efficacy (rate of extermination)” value with Ctenocephalides felis [1] and in the assay with Musca domestica was 100% each time.

As to `CC(=O)NCc1cccc(-c2cnn(-c3c(Cl)cc(C(F)(C(F)(F)F)C(F)(F)F)cc3OC(F)(F)F)c2)c1` [Ia-38], the efficacy was found to be 80% in the assay on Rhipicephalus sanguineus, 100% in the assay with Spodoptera frugiperda and 100% with Phaedon cochleariae. Also, in the assay with Boophilus microplus, the “efficacy (laying of fertile eggs)” value is given as 100%. In addition, the “efficacy (rate of extermination)” value in the assay on Ctenocephalides felis [1] and with Musca domestica was 100% each time.
